Results from patent US12552825B2 (Zikani Therapeutics, Inc., priority 2019, dated 2026).
In brackets after ≈: the same amount, converted by molar mass.

Key:
Assay type in all cases: cell-based
S. aureus MP-12 = experiment: microbe, parasite or virus in culture; conditions: Staphylococcus aureus, MP12, read-out: MIC S. aureus MP-12
E. coli MP-4 = experiment: MIC determination by CLSI broth dilution, E. coli MP-4; conditions: Escherichia coli, MP4, CLSI broth dilution; strain MP-4
K. pneumoniae MP-546 = experiment: MIC determination by CLSI broth dilution, K. pneumoniae MP-546; conditions: Klebsiella pneumoniae, MP546, CLSI broth dilution; strain MP-546
K. pneumoniae MP-648 = experiment: MIC determination by CLSI broth dilution, K. pneumoniae MP-648; conditions: Klebsiella pneumoniae, MP648, CLSI broth dilution; strain MP-648
P. aeruginosa MP-3 = experiment: MIC determination by CLSI broth dilution, P. aeruginosa MP-3; conditions: Pseudomonas aeruginosa, MP3, strain MP-3
A. baumannii MP-15 = experiment: MIC determination by CLSI broth dilution, A. baumannii MP-15; conditions: Acinetobacter baumannii, MP15, strain MP-15, read-out: MIC A. baumanii MP-15

| SMILES | MIC (S. aureus MP-12) | MIC (E. coli MP-4) | MIC (K. pneumoniae MP-546) | MIC (K. pneumoniae MP-648) | MIC (P. aeruginosa MP-3) | MIC (A. baumannii MP-15) |
| --- | --- | --- | --- | --- | --- | --- |
| CO[C@]1(C)C[C@@H](C)CN(C)[C@H](CC2CCNCC2)COC(=O)C(C)(C)C(=O)[C@H](C)[C@H]1O[C@@H]1O[C@H](C)C[C@H](N(C)C)[C@H]1O [Compound 51] | > 32 µg/mL | 4 to 32 µg/mL (≈ 6.69 to 53.5 µM) | > 32 µg/mL | > 32 µg/mL | > 32 µg/mL | > 32 µg/mL |
| CO[C@]1(C)C[C@@H](C)CN(C)[C@H](CC2CCN(C(C)C)CC2)COC(=O)C(C)(C)C(=O)[C@H](C)[C@H]1O[C@@H]1O[C@H](C)C[C@H](N(C)C)[C@H]1O [Compound 52] | 4 to 32 µg/mL (≈ 6.25 to 50 µM) | < 4 µg/mL | < 4 µg/mL | 4 to 32 µg/mL (≈ 6.25 to 50 µM) | > 32 µg/mL | > 32 µg/mL |
| CCC(CCNCC(C)C)C[C@@H]1COC(=O)C(C)(C)C(=O)[C@H](C)[C@@H](O[C@@H]2O[C@H](C)C[C@H](N(C)C)[C@H]2O)[C@](C)(OC)C[C@@H](C)CN1C (stereo partly drawn) [Compound 53] | 4 to 32 µg/mL (≈ 6.1 to 48.8 µM) | < 4 µg/mL | < 4 µg/mL | < 4 µg/mL | > 32 µg/mL | > 32 µg/mL |
| CO[C@]1(C)C[C@@H](C)CN(C)[C@H](CC2CCN(CC3CCCCC3)CC2)COC(=O)C(C)(C)C(=O)[C@H](C)[C@H]1O[C@@H]1O[C@H](C)C[C@H](N(C)C)[C@H]1O [Compound 55] | 4 to 32 µg/mL (≈ 5.76 to 46.1 µM) | < 4 µg/mL | < 4 µg/mL | < 4 µg/mL | > 32 µg/mL | > 32 µg/mL |
| CCCCCCCN1CCC(C[C@@H]2COC(=O)C(C)(C)C(=O)[C@H](C)[C@@H](O[C@@H]3O[C@H](C)C[C@H](N(C)C)[C@H]3O)[C@](C)(OC)C[C@@H](C)CN2C)CC1 [Compound 56] | 4 to 32 µg/mL (≈ 5.75 to 46 µM) | < 4 µg/mL | < 4 µg/mL | < 4 µg/mL | > 32 µg/mL | > 32 µg/mL |
| CO[C@]1(C)C[C@@H](C)CN(C)[C@H](CC2CCN(CC3CC3)CC2)COC(=O)C(C)(C)C(=O)[C@H](C)[C@H]1O[C@@H]1O[C@H](C)C[C@H](N(C)C)[C@H]1O [Compound 57] | 4 to 32 µg/mL (≈ 6.14 to 49.1 µM) | < 4 µg/mL | < 4 µg/mL | < 4 µg/mL | > 32 µg/mL | > 32 µg/mL |
| CCC(CC)CN1CCC(C[C@@H]2COC(=O)C(C)(C)C(=O)[C@H](C)[C@@H](O[C@@H]3O[C@H](C)C[C@H](N(C)C)[C@H]3O)[C@](C)(OC)C[C@@H](C)CN2C)CC1 [Compound 58] | 4 to 32 µg/mL (≈ 5.87 to 46.9 µM) | < 4 µg/mL | < 4 µg/mL | < 4 µg/mL | > 32 µg/mL | > 32 µg/mL |
| CCCN1CC=C(C[C@@H]2COC(=O)C(C)(C)C(=O)[C@H](C)[C@@H](O[C@@H]3O[C@H](C)C[C@H](N(C)C)[C@H]3O)[C@](C)(OC)C[C@@H](C)CN2C)CC1 [Compound 59] | < 4 µg/mL | < 4 µg/mL | < 4 µg/mL | 4 to 32 µg/mL (≈ 6.27 to 50.2 µM) | > 32 µg/mL | > 32 µg/mL |
| CO[C@]1(C)C[C@@H](C)CN(C)[C@H](CC2CCN(C3CCCC3)CC2)COC(=O)C(C)(C)C(=O)[C@H](C)[C@H]1O[C@@H]1O[C@H](C)C[C@H](N(C)C)[C@H]1O [Compound 60] | 4 to 32 µg/mL (≈ 6.01 to 48.1 µM) | < 4 µg/mL | < 4 µg/mL | < 4 µg/mL | > 32 µg/mL | > 32 µg/mL |
| CO[C@]1(C)C[C@@H](C)CN(C)[C@H](CC2CCN(Cc3ccncc3)CC2)COC(=O)C(C)(C)C(=O)[C@H](C)[C@H]1O[C@@H]1O[C@H](C)C[C@H](N(C)C)[C@H]1O [Compound 61] | 4 to 32 µg/mL (≈ 5.81 to 46.4 µM) | < 4 µg/mL | 4 to 32 µg/mL (≈ 5.81 to 46.4 µM) | 4 to 32 µg/mL (≈ 5.81 to 46.4 µM) | > 32 µg/mL | > 32 µg/mL |
| CO[C@]1(C)C[C@@H](C)CN(C)[C@H](CC2CCN(Cc3ccco3)CC2)COC(=O)C(C)(C)C(=O)[C@H](C)[C@H]1O[C@@H]1O[C@H](C)C[C@H](N(C)C)[C@H]1O [Compound 62] | 4 to 32 µg/mL (≈ 5.9 to 47.2 µM) | < 4 µg/mL | < 4 µg/mL | < 4 µg/mL | > 32 µg/mL | 4 to 32 µg/mL (≈ 5.9 to 47.2 µM) |
| CO[C@]1(C)C[C@@H](C)CN(C)[C@H](CC2CCN(C3CC3)CC2)COC(=O)C(C)(C)C(=O)[C@H](C)[C@H]1O[C@@H]1O[C@H](C)C[C@H](N(C)C)[C@H]1O [Compound 63] | 4 to 32 µg/mL (≈ 6.27 to 50.2 µM) | < 4 µg/mL | < 4 µg/mL | 4 to 32 µg/mL (≈ 6.27 to 50.2 µM) | > 32 µg/mL | > 32 µg/mL |
